Literature values as cited in patent publication US20220054659A1, “PSMA-TARGETED PAMAM DENDRIMERS FOR SPECIFIC DELIVERY OF IMAGING, CONTRAST AND THERAPEUTIC AGENTS” (The Johns Hopkins University, priority 2018, published 2022).

Molecular target: PSMA (Homo sapiens, UniProt Q04609)
Sequence (Q04609 whole entry, species assumed): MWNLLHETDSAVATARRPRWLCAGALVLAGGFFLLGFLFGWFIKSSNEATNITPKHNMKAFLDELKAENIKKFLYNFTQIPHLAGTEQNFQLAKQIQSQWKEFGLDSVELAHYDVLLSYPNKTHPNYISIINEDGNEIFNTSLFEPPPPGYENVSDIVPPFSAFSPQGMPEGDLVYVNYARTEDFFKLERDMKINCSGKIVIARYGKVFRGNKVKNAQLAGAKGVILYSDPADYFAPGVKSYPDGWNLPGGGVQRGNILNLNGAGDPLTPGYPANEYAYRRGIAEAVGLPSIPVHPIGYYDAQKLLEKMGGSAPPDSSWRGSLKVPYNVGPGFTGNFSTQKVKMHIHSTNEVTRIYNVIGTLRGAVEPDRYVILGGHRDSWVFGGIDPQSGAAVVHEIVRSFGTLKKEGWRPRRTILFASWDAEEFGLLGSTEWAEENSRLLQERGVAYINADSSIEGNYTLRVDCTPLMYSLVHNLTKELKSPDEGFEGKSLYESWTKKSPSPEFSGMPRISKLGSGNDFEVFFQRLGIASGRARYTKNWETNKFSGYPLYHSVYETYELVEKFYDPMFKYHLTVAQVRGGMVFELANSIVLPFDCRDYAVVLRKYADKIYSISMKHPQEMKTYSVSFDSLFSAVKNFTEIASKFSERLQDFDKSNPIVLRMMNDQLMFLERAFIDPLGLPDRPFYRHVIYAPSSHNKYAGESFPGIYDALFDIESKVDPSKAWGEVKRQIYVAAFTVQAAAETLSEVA

NCCCC[C@H](NC(=O)N[C@@H](CCC(=O)O)C(=O)O)C(=O)O [Lys-Glu-urea]
affinity to PSMA: picomolar
